Test results taken from patent publication US20070099939A1, “Fungicidal mixtures for controlling rice pathogens” (priority 2003, published 2007).

Tested on: Cochliobolus miyabeanus
Test: Activity against brown spot of rice caused by Cochliobolus miyabeanus, protective application
Format: in vivo
Details: individual active compound, inoculated next day, assessed after six days
Procedure: The active compounds, separately or jointly, were prepared as a stock solution with 0.25% by weight of active compound in acetone or DMSO. 1% by weight of the emulsifier Uniperol® EL (wetting agent having emulsifying and dispersing action based on ethoxylated alkylphenols) was added to this solution, and the solution was diluted with water to the desired concentration.
Use Example—Activity Against Brown Spot of Rice Caused by Cochliobolus Miyabeanus, Protective Application
Leaves of potted rice seedlings of the cultivar “Tai-Nong 67” were sprayed to runoff point with an aqueous suspension of the concentration of active compound stated below. The next day, the plants were inoculated with an aqueous spore suspension of Cochliobolus miyabeanus. The test plants were then placed in climatized chambers at 22-24° C. and 95-99% relative atmospheric humidity for six days. The extent of the development of the infection on the leaves was then determined visually.
Evaluation was carried out by determining the percentage of infected plants. These percentages were converted into efficacies.
The efficacy (E) is calculated as follows using Abbot's formula: E=(1−α/β)·100 • α corresponds to the fungicidal infection of the treated plants in % and • β corresponds to the fungicidal infection of the untreated (control) plants in %
An efficacy of 0 means that the infection level of the treated plants corresponds to that of the untreated control plants; an efficacy of 100 means that the treated plants are not infected.
The expected efficacies of mixtures of active compounds are determined using Colby's formula (R.S. Colby, Weeds, 15, 20-22, 1967) and compared with the observed efficacies.
Colby's Formula: E=x+y−x·y/100 • E expected efficacy, expressed in % of the untreated control, when using the mixture of the active compounds A and B at the concentrations a and b • x efficacy, expressed in % of the untreated control, when using the active compound A at the concentration a • y efficacy, expressed in % of the untreated control, when using the active compound B at the concentration b

## CC1CCN(c2c(-c3c(F)cc(F)cc3F)c(Cl)nc3ncnn23)CC1 [I, 5-chloro-7-(4-methylpiperidin-1-yl)-6-(2,4,6-trifluorophenyl)-[1,2,4]triazolo[1,5-a]pyrimidine]
4 ppm in the spray liquor
  Efficacy in % of the untreated control: 33%

## C[C@H](Nc1c(-c2c(F)cc(F)cc2F)c(Cl)nc2ncnn12)C(F)(F)F [B]
4 ppm in the spray liquor
  Efficacy in % of the untreated control: 44%

## CC1=C(C(=O)Nc2ccccc2)SCCO1 [II (carboxin), N-phenyl-2-methyl-5,6-dihydro-[1,4]oxathiine-3-carboxamide]
1 ppm in the spray liquor
  Efficacy in % of the untreated control: 0%
4 ppm in the spray liquor
  Efficacy in % of the untreated control: 0%

## CC1CCN(c2c(-c3c(F)cccc3Cl)c(Cl)nc3ncnn23)CC1 [A]
4 ppm in the spray liquor
  Efficacy in % of the untreated control: 44%
